Laboratory results published in US20210308034A1, “PREBIOTIC COMPOSITIONS AND METHODS FOR MAINTAINING A HEALTHY SKIN MICROBIOTA” (KIMBERLY-CLARK WORLDWIDE, INC., priority 2018, published 2021).
Where a SMILES comes first, the peptide text is derived from it.

Columns and labels:
Assay type in all cases: cell-based
[1] = test system: commensal and pathogenic skin bacteria; assay: Carbohydrate Screening Test Method, all bacteria codes tested; settings: ten bacteria codes of Table 1
Source text: (§1) After creating desired ratios of various commensal skin bacteria in a healthy skin microbiome, 188 different carbohydrate sources were screened as the next step in determining potential prospects for skin microbiota balancing agents. The screening process was set up to determine which carbohydrate sources promoted commensal and/or pathogenic bacteria as well as to obtain individual and combinations of carbohydrate sources that could serve as microbiota balancing agents that can support or maintain the healthy proportions of commensal skin bacteria of Corynebacterium, Staphylococcus, and Micrococcus. The screening was conducted utilizing Biolog phenotype microarray plates (Hayward, Calif.). Table 1 provides a coded list of the commensal and pathogenic skin bacteria that the carbohydrates were screened against.
(§2) The Bacteria Codes B, D, E, I, and J are commensal bacteria and are shaded in Table 2 for references purposes. The bacteria codes were each placed in a carbon microarray plate and screened through the Carbohydrate Screening Test Method, as described in the Test Methods section herein. If a particular bacteria code utilized a specific carbohydrate source as described in the Carbohydrate Screening Test Method, then the corresponding cell in Table 2 was marked with a Y (short for “Yes”).
(§3) The study employed 10 representative skin bacteria; Staphylococcus epidermidis ATCC 14990, Staphylococcus epidermidis M23864:W2, Staphylococcus aureus ATCC 6538, Staphylococcus aureus ATCC 25904 (Newman), Pseudomonas aeruginosa ATCC 9027, Micrococcus luteus ATCC […], Micrococcus luteus SK58, Klebsiella pneumoniae ATCC BAA-2146, Corynebacterium amycolatum SK46, and Corynebacterium minutissimum ATCC 23348. Cultures were started from freezer bead stocks by placing a single bead into 20 mL of tryptic soy broth (TSB) for all organisms except C. amycolatum SK46 and C. minutissimum ATCC 23348, which were placed into brain heart infusion (BHI) broth. Cultures were grown for about 24 hr at 37° C. except M. luteus ATCC 49732 and M. luteus SK58, which were grown at 30° C. A passage of the culture was made using a sterile swab and streaked onto two M9*2 agar plates to prepare the incubated culture for the phenotype microarray pate according to Table 4. Plates were incubated for about 24 hr at 37° C. except for M. luteus ATCC 49732 and M. luteus SK58, which were incubated at 30° C. for 24 hr.
(§4) All cultures were harvested and washed before inoculation into the carbon microarray plate (BiOLOG, Hayward Calif.), with Biolog Plates PM1 and PM2 each having a source definition of Carbon. The bacteria on the M9*2 agar was suspended via agitation with an inoculating loop in 1 mL of M9*1 media for collection in a 1.7 mL micro centrifuge tube, as noted in Table 4. The bacteria was suspended again in M9*1 media, agitated, and collected into the same 1.7 mL microcentrifuge tube used in the previous step. The tube was centrifuged for 5 minutes at 4,000×G, supernatant decanted, the pellet was resuspended in 1 mL of M9*1 media, and vortex. This washing process was repeated for a total of 4 times.
A tenfold dilution in M9*1 media was performed using 1 mL of the washed bacterial culture.

[2] = test system: Staphylococcus epidermidis (M23864:W2); assay: Carbohydrate Screening Test Method (Biolog phenotype microarray), Bacteria Code J; settings: Commensal; carbon microarray plate, OD 600 nm, 36 hr, 33° C.; positive = more than 0.05 OD units above zero; blank cell = not utilized
Source text: as §1, §2
(§5) To do so, the respective microarray data for the 79 carbohydrate sources was run through the GrowthRates 2.1 program to obtain growth parameters, such as growth rates and maximum yield data as described by the Belingham Research Institute, Hall, B. G., H. Acar and M. Barlow. 2014 Growth Rates Made Easy. Mol. Biol. Evol. 31:232-238 doi:10.1093/molbev/mst197. The max yield parameters generated were utilized to calculate ratios of tested commensal bacteria. The ratios calculated were compared back to the desired ratios identified above (Corynebacterium to Staphylococcus of 1.3, Corynebacterium to Micrococcus of 1.4, and Staphylococcus to Micrococcus of 1.1).
(§6) As an example of this methodology used to calculate the commensal bacteria ratios and the difference between the calculated ratios and the desired ratios, an example code from Table 3 will be described. […] The max yields were then used to calculate ratios the bacteria would reach in a co-culture.

[3] = test system: Klebsiella pneumoniae (ATCC BAA-2146); settings: Pathogenic; carbon microarray plate, OD 600 nm, 36 hr, 33° C.; positive = more than 0.05 OD units above zero; blank cell = not utilized
Source text: as §1
Table 2 provides the results of screening various carbohydrate sources against the commensal and pathogenic bacteria codes listed in Table 1. The Bacteria Codes B, D, E, I, and J are commensal bacteria and are shaded in Table 2 for references purposes. The bacteria codes were each placed in a carbon microarray plate and screened through the Carbohydrate Screening Test Method, as described in the Test Methods section herein. If a particular bacteria code utilized a specific carbohydrate source as described in the Carbohydrate Screening Test Method, then the corresponding cell in Table 2 was marked with a Y (short for “Yes”). […] Many of the carbohydrate sources were utilized by both commensal and pathogenic bacteria, and as such, would not provide an advantage for selective growth of the commensal bacteria. However, some of the carbohydrate sources were only used by commensal bacteria and were identified for further testing as described herein.
as §3, §4
A tenfold dilution in M9*1 media was performed using 1 mL of the washed bacterial culture. Of the tenfold dilution 200 μL was placed in an untreated 96-well plate (Falcon, Pasadena Tx.) for an initial optical density (OD) reading at a wavelength of 600 nm. The OD was used to correlate to colony forming units (CFU) per milliliter by using linear regression lines for each organism. […]

[4] = test system: Pseudomonas aeruginosa (ATCC 9027); settings: Pathogenic; carbon microarray plate, OD 600 nm, 36 hr, 33° C.; positive = more than 0.05 OD units above zero; blank cell = not utilized
Source text: as §1, §2, §3, §4
A tenfold dilution in M9*1 media was performed using 1 mL of the washed bacterial culture. Of the tenfold dilution 200 μL was placed in an untreated 96-well plate (Falcon, Pasadena Tx.) for an initial optical density (OD) reading at a wavelength of 600 nm. The OD was used to correlate to colony forming units (CFU) per milliliter by using linear regression lines for each organism.

[5] = test system: Micrococcus luteus (SK58); assay: Carbohydrate Screening Test Method (Biolog phenotype microarray), Bacteria Code E; settings: Commensal; carbon microarray plate, OD 600 nm, 36 hr, 33° C.; positive = more than 0.05 OD units above zero; blank cell = not utilized
Source text: as §1, §2, §5, §6

[6] = test system: Corynebacterium jeikum (ATCC 33033); assay: Carbohydrate Screening Test Method (Biolog phenotype microarray), Bacteria Code B; settings: Commensal; carbon microarray plate, OD 600 nm, 36 hr, 33° C.; positive = more than 0.05 OD units above zero; blank cell = not utilized
Procedure: as §1, with “The” for “After creating desired ratios of various commensal skin bacteria in a healthy skin microbiome, 188 different carbohydrate sources were screened as the next step in determining potential prospects for skin microbiota balancing agents. The”
as §2
as §5, with “2014 Growth Rates Made Easy.” left out, “31:232-238 doi:10.1093/molbev/mst197.” left out
as §6
A passage of the culture was made using a sterile swab and streaked onto two M9*2 agar plates to prepare the incubated culture for the phenotype microarray pate according to Table 4.
All cultures were harvested and washed before inoculation into the carbon microarray plate (BiOLOG, Hayward Calif.), with Biolog Plates PM1 and PM2 each having a source definition of Carbon. The bacteria on the M9*2 agar was suspended via agitation with an inoculating loop in 1 mL of M9*1 media for collection in a 1.7 mL micro centrifuge tube, as noted in Table 4.

Molecule	utilization by the bacteria codes tested [1]	Carbohydrate Screening Results, Bacteria Code J [2]	other results
C/C=C/C=C/C(=O)O [Sorbic Acid]	not utilized by any of the bacteria	–	–
O=C(O)[C@@H](O)[C@H](O)C(=O)O [D-Tartaric Acid]	not utilized by any of the bacteria	–	–
OC[C@H]1O[C@@H]2O[C@H]3[C@H](O)[C@@H](O)[C@@H](O[C@H]4[C@H](O)[C@@H](O)[C@@H](O[C@H]5[C@H](O)[C@@H](O)[C@@H](O[C@H]6[C@H](O)[C@@H](O)[C@@H](O[C@H]7[C@H](O)[C@@H](O)[C@@H](O[C@H]8[C@H](O)[C@@H](O)[C@@H](O[C@H]9[C@H](O)[C@@H](O)[C@@H](O[C@H]1[C@H](O)[C@H]2O)O[C@@H]9CO)O[C@@H]8CO)O[C@@H]7CO)O[C@@H]6CO)O[C@@H]5CO)O[C@@H]4CO)O[C@@H]3CO [γ-Cyclodextrin]	–	Y	–
Dextrin	–	Y	Carbohydrate Screening Results, Bacteria Code C [3]: Y
OC[C@@H](O)[C@@H](O)CO [i-Erythritol]	not utilized by any of the bacteria	–	–
C[C@@H](O)[C@H](O)[C@H](O)[C@@H](O)C=O [D-Fucose]	not utilized by any of the bacteria	–	–
NCC(O)c1ccc(O)cc1 [D.L-Octopamine]	–	Y	Carbohydrate Screening Results, Bacteria Code C [3]: Y; Carbohydrate Screening Results, Bacteria Code F [4]: Y
N[C@@H](Cc1ccccc1)C(=O)O [L-Phenylalanine]	not utilized by any of the bacteria	–	–
O=C[C@@H](O)[C@H](O)[C@@H](O)[C@@H](O)CO [L-Glucose]	not utilized by any of the bacteria	–	–
CC(=O)N[C@H]1[C@H]([C@H](O)[C@H](O)CO)OC(O)(C(=O)O)C[C@@H]1O (stereo partly shown) [N-Acetyl-Neuraminic Acid]	not utilized by any of the bacteria	–	–
OC[C@H]1O[C@@H](O)[C@H](O)[C@H](O)[C@@H]1O [β-D-Allose]	not utilized by any of the bacteria	–	–
Nc1ncnc2c1ncn2C1CC(O)C(CO)O1 (stereo not shown) [2-Deoxy Adenosine]	not utilized by any of the bacteria	–	–
Tween 20	not utilized by any of the bacteria	–	–
CO[C@H]1O[C@H](CO)[C@@H](O)[C@H](O)[C@H]1O [α-Methyl-D-Glucoside]	not utilized by any of the bacteria	–	–
Glycogen	not utilized by any of the bacteria	–	–
Mannan	–	Y	–
CC(C)[C@H](N)C(=O)O [L-Valine]	not utilized by any of the bacteria	–	–

Molecule	utilization by the bacteria codes tested [1]	Carbohydrate Screening Results, Bacteria Code J [2]	other results
O=C(O)CCCO [y-Hydroxy Butyric Acid]	not utilized by any of the bacteria	–	–
NCC(=O)N1CCC[C@H]1C(=O)O [Glycyl-L-Proline] (H-Gly-Pro-OH)	not utilized by any of the bacteria	–	–
COC1OCC(O)C(O)C1O [β-Methyl-D-Xyloside]	not utilized by any of the bacteria	–	–
O=C(O)c1ccccc1O [2-Hydroxy Benzoic Acid]	not utilized by any of the bacteria	–	–
N[C@H](CO)C(=O)O [D-Serine]	not utilized by any of the bacteria	–	–
O=C[C@H](O)[C@@H](O)[C@@H](O)[C@H](O)CO [D-Galactose]	–	Y	Carbohydrate Screening Results, Bacteria Code E [5]: Y; Carbohydrate Screening Results, Bacteria Code C [3]: Y; Carbohydrate Screening Results, Bacteria Code F [4]: Y; Carbohydrate Screening Results, Bacteria Code B [6]: Y
Laminarin	not utilized by any of the bacteria	–	–
O=C(CO)[C@@H](O)[C@H](O)[C@@H](O)C(=O)O [5-Keto-D-Gluconic Acid]	not utilized by any of the bacteria	–	–
O=C(O)Cc1ccc(O)cc1 [p-hydroxy phenyl acetic acid]	not utilized by any of the bacteria	–	–
CCCC(=O)C(=O)O [α-Keto-Valeric Acid]	not utilized by any of the bacteria	–	–
CC(=O)N[C@@H](CO)[C@@H](O)[C@H](O)[C@H](O)CO [N-Acetyl-D-Glucosaminitol]	–	Y	–
OCC(O)CO [Glycerol]	–	Y	Carbohydrate Screening Results, Bacteria Code C [3]: Y; Carbohydrate Screening Results, Bacteria Code B [6]: Y
O=P(O)(O)OCC(O)CO (racemic) [D,L-α-Glycerol-Phosphate]	–	Y	Carbohydrate Screening Results, Bacteria Code E [5]: Y; Carbohydrate Screening Results, Bacteria Code B [6]: Y
O=C(O)[C@H](O)[C@@H](O)[C@H](O)[C@H](O)CO [D-Gluconic Acid]	–	Y	Carbohydrate Screening Results, Bacteria Code E [5]: Y; Carbohydrate Screening Results, Bacteria Code C [3]: Y; Carbohydrate Screening Results, Bacteria Code F [4]: Y; Carbohydrate Screening Results, Bacteria Code B [6]: Y
NCCCCC(=O)O [δ-Amino Valeric Acid]	–	Y	–
C[N+](C)(C)CC(O)CC(=O)[O-] (racemic) [D,L-Carnitine]	–	Y	Carbohydrate Screening Results, Bacteria Code F [4]: Y
